Reference: patent publication US20230285431A1, “Human Milk Oligosaccharide for Improving Health of Intestinal Microenvironment and Use Thereof” (Inner Mongolia Yili Industrial Group Co., Ltd., priority 2020, published 2023)
Entries after “also recorded” stand apart in the source; their conditions may differ.

Tests used:
Format in all cases: cell-based
[1] = system: infant fecal flora of the simulated distal colon; assay: Small batch fermentation with each HMO in simulated distal colon environment; conditions: for pH changes of the distal colon over time: starting pH 6.5, FIG. 3B; for production of isobutyric acid, distal colon / production of isovaleric acid, distal colon: small batch fermentation; for production of isobutyric acid, distal colon: FIG. 6A; for production of isovaleric acid, distal colon: FIG. 6B; for formic acid produced, distal colon / propionic acid produced, distal colon / acetic acid produced, distal colon / butyric acid produced, distal colon: 48 hours of fermentation; for formic acid produced, distal colon: FIG. 13; for propionic acid produced, distal colon: FIG. 15; for total short chain fatty acids produced, distal colon: FIG. 12; for acetic acid produced, distal colon: FIG. 14; for butyric acid produced, distal colon: FIG. 16
Text: (§1) Using a SHIME device (see the schematic diagram in FIG. 1A), fresh fecal samples containing bacteria flora were obtained from a healthy infant naturally delivered and exclusively breastfed, and inoculated into containers corresponding to the proximal colon and distal colon. Food material was fed to the stomach/small intestine end of the device three times a day for two weeks to support the growth and colonization of the flora in the proximal colon and distal colon. Here, the food material that was digested by the small intestine and entered the colon was prepared on the basis of the standard food material provided by ProDigest, the manufacturer of the SHIME device, with adjustment to the ratio of lactose, casein and whey protein; the standard food material was composed of: pectin (1 g/L), glucose (1 g/L), starch (1 g/L), cellobiose (1 g/L), proteose peptone (2 g/L), mucin (6 g/L)), lactose (2.1 g/L), casein (0.2 g/L), whey-lactalbumin (2.7 g/L), L-cysteine hydrochloride (0.2 g/L). The ratio of lactose, casein and whey protein in the food materials in each experiment of the present disclosure was adjusted to about 12:1:15, with reference to Le Blay et al. (2010), and stable and balanced nutrients were maintained, so as to simulate the food composition to which the infant's intestinal microecology may be exposed during regular breastfeeding or infant formula feeding. After the infant fecal flora was stabilized in the SHIME model for two weeks, the proximal colon and distal colon were sampled, aliquoted in glycerol to form a stock solution, and stored under anaerobic conditions at −80° C.
After the infant flora was inoculated into the SHIME model and stably grown for 2 weeks (as described in the aforementioned “Fecal inoculation and culture in SHIME device”), 10 mL of the flora in the proximal colon and distal colon was taken and respectively transferred to fermentation flasks under anaerobic conditions for small batch fermentation. On the basis of 43 mL basal buffer (for adjusting pH and simulating the corresponding colonic environment), each fermentation flask also contained 20 mL PBS buffer (for dissolving and introducing the HMO test substance) supplemented with different amounts of HMOs, so that the final concentration of each HMO was 0.02 g/L, 0.2 g/L, or 2 g/L, the pH of the proximal colon was set to 5.6, and the pH of the distal colon was set to 6.5. The flasks were incubated at 37° C. with shaking. During incubation, the pressure was measured at 0, 6 hours, 24 hours and 48 hours, followed by sampling for detection of pH and short chain fatty acids. Measurements were repeated three times.
During the HMO intervention, the gas production in each group was compared by measuring changes in pressure. Short chain fatty acid analysis including isobutyric acid, isovaleric acid, butyric acid, propionic acid, acetic acid, and formic acid, were analyzed by HPLC.
(§2) A two-tailed, paired t-test was performed on the data results. When there is a significant difference between two groups, and p<0.05, it is indicated with an asterisk *. Two asterisks ** indicate p<0.01. Three asterisks *** indicate p<0.001.

[2] = system: infant fecal flora of the simulated distal colon (SHIME model); assay: SHIME fermentation with each HMO in simulated distal colon environment; conditions: for decrease ratio of butyric acid, Day 14 versus Day 1, compared to control without HMO: 14 days of fermentation; for Butyric acid, Log2 (day 14/day 1): HMO 2 g/L in feed, 14 days of HMO intervention, biological replicate 1
Text: as §1
The infant fecal flora sampled and stored as in “Fecal inoculation and culture in SHIME device” was inoculated into the SLIME model to investigate the fermentation of HMOs in the SHIME device. Two batches of experiments were done sequentially, and three sample groups (or control) were simultaneously done in each batch of experiments. In three sets of experimental devices, the devices simulating the proximal colon and distal colon were inoculated separately (see the schematic diagram of FIG. 1B). Food material was fed three times a day, and after 4 days of incubation, an HMO was blended into the feed food material (no HMO was added to the control group). 280 mg of HMO (at a concentration of 2 g/L) and 60 mL of pancreatic juice were added into 140 mL of a stock solution for each food material. Only one experiment was performed for each set of HMO and control, so the biological replicate was 1. SHIME fermentation continued until Day 14 after the HMO intervention, and samples were taken for detection at different time periods during the fermentation period.
as §2

[3] = system: infant fecal flora of the simulated proximal colon; assay: Small batch fermentation with each HMO in simulated proximal colon environment; conditions: for formic acid produced, proximal colon: FIG. 8; for acetic acid produced, proximal colon: FIG. 9; for total short chain fatty acids produced, proximal colon: FIG. 7; for pressure changes (gas production) in the proximal colon: FIG. 4A
Text: Using a SHIME device (see the schematic diagram in FIG. 1A), fresh fecal samples containing bacteria flora were obtained from a healthy infant naturally delivered and exclusively breastfed, and inoculated into containers corresponding to the proximal colon and distal colon. Food material was fed to the stomach/small intestine end of the device three times a day for two weeks to support the growth and colonization of the flora in the proximal colon and distal colon. Here, the food material that was digested by the small intestine and entered the colon was prepared on the basis of the standard food material provided by ProDigest, the manufacturer of the SHIME device, with adjustment to the ratio of lactose, casein and whey protein; the standard food material was composed of: pectin (1 g/L), glucose (1 g/L), starch (1 g/L), cellobiose (1 g/L), proteose peptone (2 g/L), mucin (6 g/L)), lactose (2.1 g/L), casein (0.2 g/L), whey-lactalbumin (2.7 g/L), L-cysteine hydrochloride (0.2 g/L). The ratio of lactose, casein and whey protein in the food materials in each experiment of the present disclosure was adjusted to about 12:1:15, with reference to Le Blay et al. (2010), and stable and balanced nutrients were maintained, so as to simulate the food composition to which the infant's intestinal microecology may be exposed during regular breastfeeding or infant formula feeding. After the infant fecal flora was stabilized in the SHIME model for two weeks, the proximal colon and distal colon were sampled, aliquoted in glycerol to form a stock solution, and stored under anaerobic conditions at −80° C. After the infant flora was inoculated into the SHIME model and stably grown for 2 weeks (as described in the aforementioned “Fecal inoculation and culture in SHIME device”), 10 mL of the flora in the proximal colon and distal colon was taken and respectively transferred to fermentation flasks under anaerobic conditions for small batch fermentation. On the basis of 43 mL basal buffer (for adjusting pH and simulating the corresponding colonic environment), each fermentation flask also contained 20 mL PBS buffer (for dissolving and introducing the HMO test substance) supplemented with different amounts of HMOs, so that the final concentration of each HMO was 0.02 g/L, 0.2 g/L, or 2 g/L, the pH of the proximal colon was set to 5.6, and the pH of the distal colon was set to 6.5. The flasks were incubated at 37° C. with shaking. During incubation, the pressure was measured at 0, 6 hours, 24 hours and 48 hours, followed by sampling for detection of pH and short chain fatty acids. Measurements were repeated three times. During the HMO intervention, the gas production in each group was compared by measuring changes in pressure. Short chain fatty acid analysis including isobutyric acid, isovaleric acid, butyric acid, propionic acid, acetic acid, and formic acid, were analyzed by HPLC. A two-tailed, paired t-test was performed on the data results. When there is a significant difference between two groups, and p<0.05, it is indicated with an asterisk *. Two asterisks ** indicate p<0.01. Three asterisks *** indicate p<0.001.

[4] = HMO 2 g/L, 48 hours of fermentation

| Compound | pH changes of the distal colon over time ([1]; HMO 2 g/L) | production of isobutyric acid, distal colon [1] | production of isovaleric acid, distal colon [1] | decrease ratio of butyric acid, Day 14 versus Day 1, compared to control without HMO [2] | Butyric acid, Log2 (day 14/day 1) [2] | formic acid produced, distal colon [1] | propionic acid produced, distal colon [1] | total short chain fatty acids produced, distal colon ([1]; HMO 2 g/L, 24 hours) | formic acid produced, proximal colon ([3]; 48 hours of fermentation) | acetic acid produced, proximal colon ([3]; 48 hours of fermentation) | total short chain fatty acids produced, proximal colon ([3]; HMO 2 g/L, 24 hours of fermentation) | total short chain fatty acids produced, proximal colon [3, 4] | pressure changes (gas production) in the proximal colon ([3]; HMO 2 g/L) | acetic acid produced, distal colon [1] | butyric acid produced, distal colon [1] | total short chain fatty acids produced, distal colon ([1]; HMO 0.02 g/L, 6 hours) | propionic acid produced, proximal colon ([3]; 48 hours of fermentation, FIG. 10) | butyric acid produced, proximal colon ([3]; 48 hours of fermentation, FIG. 11) | pressure changes (gas production) in the proximal colon ([3]; HMO 0.2 g/L) | pH changes over time ([1]; HMO 0.2 g/L, colon section not given) |
| --- | --- | --- | --- | --- | --- | --- | --- | --- | --- | --- | --- | --- | --- | --- | --- | --- | --- | --- | --- | --- |
| 2′-fucosyllactose [2′-FL] | tend to significantly lower the pH | significantly reduce | most potent; also recorded: significantly reduce | good improving effect compared to the control | −0.67 | – | – | – | – | – | – | – | – | – | – | – | – | – | – | – |
| 3-fucosyllactose [3-FL] | tend to significantly lower the pH | significantly reduce | significantly reduce | – | −0.33 | more significant | more significant | relatively more short chain fatty acids | – | – | – | – | – | – | – | – | – | – | – | – |
| CC(=O)N[C@H]1[C@H]([C@H](O)[C@H](O)CO)O[C@@](O[C@H]2[C@@H](O)[C@@H](CO)O[C@@H](O[C@H]3[C@H](O)[C@@H](O)C(O)O[C@@H]3CO)[C@@H]2O)(C(=O)O)C[C@@H]1O (stereo partly drawn) [3-SL, 3′-sialyl lactose] | – | significantly reduce | – | the smallest | −0.13 | more significant | more significant | – | significantly increased | significantly increased; also recorded: more significant | produces more SCFA | significantly more SCFA | higher pressure | more significant | significantly increased | relatively more short chain fatty acids | – | – | – | – |
| CC(=O)N[C@H]1[C@H]([C@H](O)[C@H](O)CO)O[C@@](OC[C@H]2O[C@@H](O[C@H]3[C@H](O)[C@@H](O)[C@H](O)O[C@@H]3CO)[C@H](O)[C@@H](O)[C@H]2O)(C(=O)O)C[C@@H]1O [6-SL, 6′-sialyl lactose] | – | – | – | good improving effect compared to the control | −0.66 | more significant | – | relatively more short chain fatty acids | significantly increased; also recorded: more significant | significantly increased | – | significantly more SCFA | higher pressure | more significant | significantly increased | – | significantly increased | significantly increase | – | – |
| CC(=O)N[C@H]1[C@H](O[C@H]2[C@@H](O)[C@@H](CO)O[C@@H](O[C@H]3[C@H](O)[C@@H](O)C(O)O[C@@H]3CO)[C@@H]2O)O[C@H](CO)[C@@H](O)[C@@H]1O[C@@H]1O[C@H](CO)[C@H](O)[C@H](O)[C@H]1O (stereo partly drawn) [LNT, Lacto-N-tetraose] | – | significantly reduce | – | good improving effect compared to the control | −0.70 | more significant | – | – | – | – | – | – | – | more significant | – | relatively more short chain fatty acids | – | – | tends to produce gas better | tends to better lower the pH |
